Assay results from patent US20120328605A1, “COMPOSITIONS AND USES” (priority 2010, published 2012).
Entries after “also recorded” stand apart in the source; their conditions may differ.

How the values were obtained:
[1] = test system: CD11b+ peripheral blood monocytes; test: Ex vivo uptake assay of Aβ1-42 by peripheral blood monocytes; format: cell-based, C57BL/6 mice; settings: AS01B mouse full dose (5 ug per mouse) or CRX601 2 μg i.m.; FIG. 14
Description: Preparation of cells: Peripheral blood was drawn from C57BL/6 mice via cardiac puncture with lithium-heparin as anticoagulant, 24-hours after injection of the adjuvants used herein. Red blood cell lysis was performed twice on pooled blood with Ammonium Chloride-based Buffer (Sigma, Steinheim, Germany) and cells were counted with the EasyCount™ System (Immunicon). […]
(§1) FACS analysis: cells were harvested after incubation with fluorescent Aβ peptide with Trypsin/EDTA and cold PBS and washed three times. 500,000 cells were incubated in 96-well plate for 10 min. on ice in the presence of Rat anti-Mouse CD16/CD32 (clone 2.4G2-BD Fc Block™) and further stained for 30 min. with a combination of the following directly conjugated antibodies at their pre-determined optimal concentration: PE-Hamster anti-Mouse CD3 (clone 145-2C11), Rat anti-Mouse CD45R/B220 (clone RA3-6B2), Rat anti-Mouse Ly-6G (clone 1A8), Mouse anti-Mouse NK1.1 (clone PK136), APC-conjugated Rat anti-Mouse CD11b (clone M1/70), PE-Cy7-conjugated Hamster anti-Mouse CD11c (clone HL3), (all from BD PharMingen). […]
Samples were acquired on a flow cytometer (BD FACSCanto II) and data analyzed with the FACSDiva software (BD Biosciences). […]

CD11b+ monocytes = test: In vivo uptake assay of Aβ42 after immunization or passive immunotherapy; design: species or system C57BL/6 mice; antibody-mediated Aβ peripheral uptake: dose or concentration left out as unconfirmed; settings: FIG. 22
Description: Mice: C57BL/6 female mice were purchased from Charles River. […]
[…] At day 22, 5 μg per mouse of fluorescent HiLyte Fluor™ 488-labeled Amyloid β 1-42 (Anaspec, Fremont, Calif.) was injected in the tail vein. Preparation of cells: Peripheral blood was drawn from immunized C57BL/6 mice via cardiac puncture with lithium-heparin as anticoagulant, 2 hours after i.v. injection of the Aβ1-42 HiLyte Fluor™ 488 (Day 22). Plasma of pooled blood was decanted and saved for measurement of antibody titres by ELISA. Red blood cell lysis was performed twice with Ammonium Chloride-based Buffer (Sigma, Steinheim, Germany) and cells were counted with the EasyCount™ System (Immunicon).
as §1, with “analysis:” for “analysis: cells were harvested after incubation with fluorescent Aβ peptide with Trypsin/EDTA and cold PBS and washed three times.”, “were aliquoted in a 96-well plate, washed once,” for “were”, “incubated” for “incubated in 96-well plate”, “PharMingen). Cells were finally washed twice and fixed for 15 min. with a 2% paraformaldehyde solution in PBS.” for “PharMingen).”

CCCCCCCCCCC[C@H](CC(=O)N[C@H]1[C@H](OC[C@H](NC(=O)C[C@@H](CCCCCCCCCCC)OCCCCCCCCCC)C(=O)O)O[C@H](CO)[C@@H](OP(=O)(O)O)[C@@H]1OC(=O)C[C@@H](CCCCCCCCCCC)OCCCCCCCCCC)OCCCCCCCCCC [CRX601]
ex vivo uptake of Aβ42 by monocytes compared to PBS group [1]: higher amount of Aβ42 | antibody-mediated Aβ uptake, effect of CRX601 when combined with AS03 emulsion (CD11b+ monocytes; CRX601 20 ug with AS03): partially quenched | antibody-mediated Aβ peripheral uptake (CD11b+ monocytes; single i.m. injection, 24 hrs, Aβ Fluor i.v., 2 hrs): highest Aβ uptake; also recorded: Dose-response observed
